Drawing on BindingDB's records for patent US20240150287 (Hangzhou Apeloa Medicine Research Institute Co., 2024), this text covers IC50 for six compounds.

Molecules are shown by their SMILES. pIC50: −log10 of the molar value.

For the test, the target named is T1, Mucosal addressin cell adhesion molecule 1/Integrin alpha-4/beta-7 (Homo sapiens, UniProt P13612+P26010+Q13477).
T1 sequence (P13612 whole entry): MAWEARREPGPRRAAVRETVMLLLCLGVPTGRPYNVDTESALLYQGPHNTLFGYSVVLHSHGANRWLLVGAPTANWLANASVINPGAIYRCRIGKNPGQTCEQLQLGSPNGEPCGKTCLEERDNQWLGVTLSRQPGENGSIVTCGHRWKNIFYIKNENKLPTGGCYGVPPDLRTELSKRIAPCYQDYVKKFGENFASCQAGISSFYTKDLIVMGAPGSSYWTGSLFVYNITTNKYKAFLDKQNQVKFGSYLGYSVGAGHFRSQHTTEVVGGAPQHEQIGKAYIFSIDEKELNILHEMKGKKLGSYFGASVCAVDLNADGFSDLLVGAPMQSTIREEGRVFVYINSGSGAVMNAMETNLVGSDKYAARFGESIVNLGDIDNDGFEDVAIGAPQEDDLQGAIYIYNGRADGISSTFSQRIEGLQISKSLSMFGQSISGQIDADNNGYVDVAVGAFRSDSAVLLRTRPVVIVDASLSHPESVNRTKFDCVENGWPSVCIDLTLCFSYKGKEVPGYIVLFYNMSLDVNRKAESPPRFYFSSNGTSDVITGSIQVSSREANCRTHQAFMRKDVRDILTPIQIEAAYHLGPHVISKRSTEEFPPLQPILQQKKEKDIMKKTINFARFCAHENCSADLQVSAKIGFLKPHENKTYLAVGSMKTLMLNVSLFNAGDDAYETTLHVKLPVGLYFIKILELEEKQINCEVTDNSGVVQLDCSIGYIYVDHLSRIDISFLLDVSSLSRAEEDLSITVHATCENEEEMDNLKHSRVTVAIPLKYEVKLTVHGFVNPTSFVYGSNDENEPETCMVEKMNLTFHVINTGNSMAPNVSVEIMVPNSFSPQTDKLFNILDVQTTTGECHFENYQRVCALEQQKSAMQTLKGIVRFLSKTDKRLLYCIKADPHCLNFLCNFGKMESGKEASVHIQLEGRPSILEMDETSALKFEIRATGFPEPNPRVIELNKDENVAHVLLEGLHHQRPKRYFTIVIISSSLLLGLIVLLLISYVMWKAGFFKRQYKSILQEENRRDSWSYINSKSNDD
T1 sequence (P26010 whole entry): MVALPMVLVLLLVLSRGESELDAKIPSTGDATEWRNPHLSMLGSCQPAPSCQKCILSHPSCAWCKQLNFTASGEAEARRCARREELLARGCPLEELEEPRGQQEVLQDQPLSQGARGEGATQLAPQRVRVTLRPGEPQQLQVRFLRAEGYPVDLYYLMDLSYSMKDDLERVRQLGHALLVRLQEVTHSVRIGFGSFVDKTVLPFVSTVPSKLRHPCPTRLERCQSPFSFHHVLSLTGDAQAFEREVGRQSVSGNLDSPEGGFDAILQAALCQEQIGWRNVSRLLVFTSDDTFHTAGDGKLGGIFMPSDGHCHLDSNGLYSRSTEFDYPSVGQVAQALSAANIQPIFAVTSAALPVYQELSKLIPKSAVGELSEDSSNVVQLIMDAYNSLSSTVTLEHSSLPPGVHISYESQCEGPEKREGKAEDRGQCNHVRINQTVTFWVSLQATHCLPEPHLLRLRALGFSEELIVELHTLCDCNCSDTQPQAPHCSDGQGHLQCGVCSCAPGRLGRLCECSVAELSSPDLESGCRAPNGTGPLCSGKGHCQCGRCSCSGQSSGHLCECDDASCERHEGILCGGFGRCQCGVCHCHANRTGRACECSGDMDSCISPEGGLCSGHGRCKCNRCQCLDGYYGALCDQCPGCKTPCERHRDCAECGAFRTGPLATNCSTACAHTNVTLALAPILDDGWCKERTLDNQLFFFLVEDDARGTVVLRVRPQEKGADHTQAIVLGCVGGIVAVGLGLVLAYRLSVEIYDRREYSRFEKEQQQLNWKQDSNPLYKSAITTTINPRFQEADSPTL
T1 sequence (Q13477 whole entry): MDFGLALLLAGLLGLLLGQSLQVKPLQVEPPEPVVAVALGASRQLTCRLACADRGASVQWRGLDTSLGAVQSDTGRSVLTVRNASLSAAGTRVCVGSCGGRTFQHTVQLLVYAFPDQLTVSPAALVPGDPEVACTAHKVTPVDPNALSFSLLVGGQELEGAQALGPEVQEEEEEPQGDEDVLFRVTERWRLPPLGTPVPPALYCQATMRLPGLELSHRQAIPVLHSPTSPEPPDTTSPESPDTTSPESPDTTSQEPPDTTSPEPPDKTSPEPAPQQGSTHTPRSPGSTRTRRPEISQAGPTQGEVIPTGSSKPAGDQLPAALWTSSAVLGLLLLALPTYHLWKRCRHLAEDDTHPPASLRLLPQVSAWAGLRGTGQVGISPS
In words: BINDING INHIBITION ACTIVITY EVALUATION TEST. On the procedure:
Coat the 96-well microplate (Costar) with 50 μL of recombinant human MAdCAM-1 (R&D Systems) solution per well, and incubate overnight (12-18 hours) at 4° C. Wash three times with 150 μL of TBS buffer per well. Block plate with 150 μL per well with blocking buffer for 1 h at 37° C. Wash three times with 150 μL of TBS buffer per well. Dilute the recombinant human integrin α4β7 (R&D Systems) with TBS buffer containing 0.1% bovine serum albumin (BSA), then add to the 96 well plate with 50 μL per well. Add 1 μL of test compound or DMSO, cover, incubate at room temperature for 2 h, wash three times with 150 μL of TBS buffer per well. Dilute the anti-β7 antibody (R&D Systems) with 0.1% BSA TBS buffer, then add to the 96 well plate with 50 μL per well, cover, incubate at room temperature for 1 h, wash three times with 150 μL of TBS buffer per well. Add 50 μL of streptavidin-HRP (R&D Systems) per well, incubate at room temperature for 20 min, wash three times with 150 μL of TBS buffer per well. Add 50 μL of TMB substrate solution (Sigma) per well, incubate at room temperature for 5-30 min, and add 25 μL of stop solution per well to stop the reaction. Finally, measure absorbance at 450 nm with microplate reader (SpectraMax 340PC. Molecular Devices). Repeat the test to find the binding rate […] at each concentration when the absorbance of the well without the test substance is used as 100%, and calculate the concentration IC50 that causes 50% binding inhibition.
The pIC50 is −log10 of the IC50, conventionally taken in molar units. A higher pIC50 goes with a small IC50. In the case of `COC(=O)[C@H](Cc1ccc(-n2c(=O)n(C)c3c(F)c(F)ccc32)cc1)NC(c1ccccc1)(c1ccccc1)c1ccccc1` [US20240150287, Example 34], the pIC50 was 7.98. The compound `COC(=O)[C@H](Cc1ccc(-n2c(=O)n(C)c3cccc(OC)c32)cc1)NC(c1ccccc1)(c1ccccc1)c1ccccc1` [US20240150287, Example 35] gave a negative-log IC50 (pIC50) of 9.35. Under `COC(=O)[C@H](Cc1ccc(-n2c(=O)n(C)c3ccc(N(C)C)cc32)cc1)NC(c1ccccc1)(c1ccccc1)c1ccccc1` [US20240150287, Example 36] stands 8.82; under `COC(=O)[C@H](Cc1ccc(-n2c(=O)n(C)c3cc(N(C)C)ccc32)cc1)NC(c1ccccc1)(c1ccccc1)c1ccccc1` [US20240150287, Example 37], 8.29; under `COC(=O)[C@H](Cc1ccc(-n2c(=O)n(C)c3cccc(Cl)c32)cc1)NC(=O)c1c(Cl)cc(Cl)cc1Cl` [US20240150287, Example 38], 7.55. Next, `COC(=O)[C@H](Cc1ccc(-n2c(=O)n(C)c3cccc(Cl)c32)cc1)NC(=O)c1c(Cl)cc(N2CCOCC2)cc1Cl` [US20240150287, Example 39]: 8.44.
